SMILES strings stand for the structures. Where only a bound is given, the exact number is not on record here.

This passage reports IC50 results from patent US20120015957A1, “PIPERAZINYL DERIVATIVES USEFUL AS MODULATORS OF THE NEUROPEPTIDE Y2 RECEPTOR” (priority 2007, published 2012).

For this experiment, the target named is T1, NPY Y2 receptor (Homo sapiens, UniProt P49146).
T1 construct: endogenous in cells; host or cells: KAN-Ts cells (membrane preparation)
T1 sequence (P49146 1-381): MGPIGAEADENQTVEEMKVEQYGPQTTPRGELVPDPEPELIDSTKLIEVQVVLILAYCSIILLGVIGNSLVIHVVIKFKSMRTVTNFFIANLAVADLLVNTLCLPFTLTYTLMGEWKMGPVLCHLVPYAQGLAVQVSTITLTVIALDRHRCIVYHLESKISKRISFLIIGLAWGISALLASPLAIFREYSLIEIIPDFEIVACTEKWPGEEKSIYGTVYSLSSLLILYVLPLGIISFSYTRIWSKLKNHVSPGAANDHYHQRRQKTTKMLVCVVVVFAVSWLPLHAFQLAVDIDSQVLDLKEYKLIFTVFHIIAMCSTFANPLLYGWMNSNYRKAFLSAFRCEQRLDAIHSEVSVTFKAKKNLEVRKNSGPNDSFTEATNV
The experiment is described as follows: Neuropeptide Y2 radioligand binding assay ([125I]PYY, KAN-Ts cell membranes). Particulars: membranes of KAN-Ts cells endogenously expressing Y2 receptors; [125I]PYY 80 pM; 1 h at rt; read-out: IC50 (μM), NPY Y2 binding. Here is the method:
KAN-Ts endogenously expressing Y2 receptors were used for the radioligand binding assay. Cells were grown to confluence on 150 cm^2 tissue culture plates, washed with phosphate-buffered saline (PBS), and scraped into 50 mL tubes. After centrifugation, the supernatant was aspirated, and the pellets frozen and stored at −80° C. Thawed pellets were homogenized with a polytron tissue grinder for 15 sec in 20 mM Tris-HCl, 5 mM EDTA. The homogenate was centrifuged at 800×g for 5 min and the collected supernatant was recentrifuged at 25000×g for 25 min. The resulting pellet was resuspended in binding buffer (20 mM HEPES, 120 mM NaCl, 0.22 mM KH2PO4, 1.3 mM CaCl2, 0.8 mM MgSO4). Membranes were incubated with [^125I]PYY (80 pM) in the presence or absence of test compound for 1 h at rt. The reaction was stopped by filtration through GF/C filter plates pre-soaked in 0.3% polyethylenimine and subsequently washed with Tris 50 mM, 5 mM EDTA buffer. Plates were dried for 1 h in a 55° C. oven, scintillation fluid was added and the radioactivity was counted in a Packard TopCount. Specific binding to the NPY receptor subtypes was determined by radioactivity that was bound in the presence of […] NPY. Each binding experiment was repeated three to eight times, each in duplicate. IC50 values (i.e. concentration of unlabelled peptide or antagonist required to compete for 50% of specific binding to the radioligand) were determined using the GraphPad Prism software (GraphPad Software Inc., San Diego Calif.) with a fit to a sigmoidal dose response curve. Apparent K values were as K=IC50/(1+C/KD), where C is concentration of the radioligand.

With `CC[C@H](C)c1nc(-c2ccc(N3CCN(C(C(=O)N(CC)CC)c4ccccc4)CC3)c(F)c2)no1` (stereo in doubt) [Compound 97, 2-{4-[4-(5-sec-Butyl-[1,2,4]oxadiazol-3-yl)-2-fluoro-phenyl]-piperazin-1-yl}-N,N-diethyl-2-phenyl-acetamide], the IC50 – broadly, the concentration that gives 50% inhibition – came out at 0.37 µM.

In the case of `CCc1nc(-c2ccc(N3CCN(C(C(=O)N(CC)CC)c4ccccc4)CC3)c(F)c2)no1` (centres unmarked) [Compound 3, N,N-Diethyl-2-{4-[4-(5-ethyl-[1,2,4]oxadiazol-3-yl)-2-fluoro-phenyl]-piperazin-1-yl}-2-phenyl-acetamide], the IC50 was determined as 0.24 µM.

In the case of `CCCc1nc(-c2ccc(N3CCN(C(C(=O)N(CC)CC)c4ccccc4)CC3)c(F)c2)no1` (centres unmarked) [Compound 68, N,N-Diethyl-2-{4-[2-fluoro-4-(5-propyl-[1,2,4]oxadiazol-3-yl)-phenyl]-piperazin-1-yl}-2-phenyl-acetamide], the IC50 was 0.52 µM.

Consider `CCC(CC)c1nc(-c2ccc(N3CCN(C(C(=O)N(CC)CC)c4ccccc4)CC3)c(F)c2)no1` (centres unmarked) [Compound 70, N,N-Diethyl-2-(4-{4-[5-(1-ethyl-propyl)-[1,2,4]oxadiazol-3-yl]-2-fluoro-phenyl}-piperazin-1-yl)-2-phenyl-acetamide], for which the concentration for half-maximal inhibition (IC50) was found to be 0.48 µM.

Consider `CCc1noc(-c2ccc(N3CCN(C(C(=O)N(CC)CC)c4ccccc4)CC3)c(F)c2)n1` (centres unmarked) [Compound 71, N,N-Diethyl-2-{4-[4-(3-ethyl-[1,2,4]oxadiazol-5-yl)-2-fluoro-phenyl]-piperazin-1-yl}-2-phenyl-acetamide], for which the half-maximal inhibitory concentration (IC50) was 0.097 µM.

On to `CCN(CC)C(=O)C(c1ccccc1)N1CCN(c2ccc(-c3noc(C(C)(C)C)n3)cc2F)CC1` (centres unmarked) [Compound 75, 2-{4-[4-(5-tert-Butyl-[1,2,4]oxadiazol-3-yl)-2-fluoro-phenyl]-piperazin-1-yl}-N,N-diethyl-2-phenyl-acetamide], for which the concentration for half-maximal inhibition (IC50) turned out to be 0.6 µM.

As for `CCN(CC)C(=O)C(c1ccccc1)N1CCN(c2ccc(-c3noc(CC(C)(C)C)n3)cc2F)CC1` (centres unmarked) [Compound 79, 2-(4-{4-[5-(2,2-Dimethyl-propyl)-[1,2,4]oxadiazol-3-yl]-2-fluoro-phenyl}-piperazin-1-yl)-N,N-diethyl-2-phenyl-acetamide], the IC50 was 6.3 µM.

Take `CCN(CC)C(=O)C(c1ccccc1)N1CCN(c2ccc(-c3nc(C(C)C)no3)cc2F)CC1` (centres unmarked) [Compound 80, N,N-Diethyl-2-{4-[2-fluoro-4-(3-isopropyl-[1,2,4]oxadiazol-5-yl)-phenyl]-piperazin-1-yl}-2-phenyl-acetamide]: the IC50 turned out to be 0.041 µM.

`CCN(CC)C(=O)C(c1ccccc1)N1CCN(c2ccc(-c3noc(C4CC4)n3)cc2F)CC1` (centres unmarked) [Compound 88, 2-{4-[4-(5-Cyclopropyl-[1,2,4]oxadiazol-3-yl)-2-fluoro-phenyl}-piperazin-1-yl]-N,N-diethyl-2-phenyl-acetamide]: the IC50 is 0.27 µM.

Turning to `CCN(CC)C(=O)C(c1ccccc1)N1CCN(c2ccc(-c3noc(C4CCC4)n3)cc2F)CC1` (centres unmarked) [Compound 89, 2-{4-[4-(5-Cyclobutyl-[1,2,4]oxadiazol-3-yl)-2-fluoro-phenyl]-piperazin-1-yl}-N,N-diethyl-2-phenyl-acetamide], the 50% inhibitory concentration (IC50) was found to be 0.85 µM.

Take `CCN(CC)C(=O)C(c1ccccc1)N1CCN(c2ccc(-c3noc(CF)n3)cc2F)CC1` (centres unmarked) [Compound 105, N,N-Diethyl-2-{4-[2-fluoro-4-(5-fluoromethyl-[1,2,4]oxadiazol-3-yl)-phenyl]-piperazin-1-yl}-2-phenyl-acetamide]: the IC50 was determined as 0.16 µM.

As for `CCN(CC)C(=O)C(c1ccccc1)N1CCN(c2ccc(-c3noc(C(F)(F)F)n3)cc2F)CC1` (centres unmarked) [Compound 118, N,N-Diethyl-2-{4-[2-fluoro-4-(5-trifluoromethyl-[1,2,4]oxadiazol-3-yl)-phenyl]-piperazin-1-yl}-2-phenyl-acetamide], the IC50 stood at 0.18 µM.

Turning to `CCN(CC)C(=O)C(c1ccccc1)N1CCN(c2ccc(C3=N[C@H](C(=O)OC)CO3)cc2F)CC1` (some centres unmarked) [Compound 124, 2-{4-[4-(Diethylcarbamoyl-phenyl-methyl)-piperazin-1-yl]-3-fluorophenyl}-4,5-dihydro-oxazole-4-carboxylic acid methyl ester], the IC50 was determined as 1 µM.

`CCN(CC)C(=O)C(c1ccccc1)N1CCN(c2ccc(-c3nc(C(=O)OC)co3)cc2F)CC1` (centres unmarked) [Compound 129, 2-{4-[4-(Diethylcarbamoyl-phenyl-methyl)-piperazin-1-yl]-3-fluorophenyl}-oxazole-4-carboxylic acid methyl ester]: the concentration for half-maximal inhibition (IC50) was 1.9 µM.

In the case of `CCOC(=O)c1nc(-c2ccc(N3CCN(C(C(=O)N(CC)CC)c4ccccc4)CC3)c(F)c2)no1` (centres unmarked) [Compound 130, 3-{4-[4-(Diethylcarbamoyl-phenyl-methyl)-piperazin-1-yl]-3-fluoro-phenyl}-[1,2,4]oxadiazole-5-carboxylic acid ethyl ester], the 50% inhibitory concentration (IC50) is above 10 µM.

Regarding `CCc1cnc(-c2ccc(N3CCN(C(C(=O)N(CC)CC)c4ccccc4)CC3)c(F)c2)o1` (centres unmarked) [Compound 133, N,N-Diethyl-2-{4-[4-(5-ethyl-oxazol-2-yl)-2-fluoro-phenyl]-piperazin-1-yl}-2-phenyl-acetamide], the IC50 came out at 0.46 µM.

As to `CCN(CC)C(=O)C(c1ccccc1)N1CCN(c2ccc(-c3noc(C(N)=O)n3)cc2F)CC1` (centres unmarked) [Compound 144, 3-{4-[4-(Diethylcarbamoyl-phenyl-methyl)-piperazin-1-yl]-3-fluorophenyl}-[1,2,4]oxadiazole-5-carboxylic acid amide], the IC50 was found to be 1.1 µM.

Regarding `CCN(CC)C(=O)C(c1ccccc1)N1CCN(c2ccc(-c3noc(C#N)n3)cc2F)CC1` (centres unmarked) [Compound 147, 2-{4-[4-(5-Cyano-[1,2,4]oxadiazol-3-yl)-2-fluoro-phenyl]-piperazin-1-yl}-N,N-diethyl-2-phenyl-acetamide], the half-inhibitory concentration (IC50) was 4.1 µM.

Consider `CCN(CC)C(=O)C(c1ccccc1)N1CCN(c2ccc(-c3noc(/C(N)=N/O)n3)cc2F)CC1` (centres unmarked) [Compound 149, N,N-Diethyl-2-(4-{2-fluoro-4-[5-(N-hydroxycarbamimidoyl)-[1,2,4]oxadiazol-3-yl]-phenyl}-piperazin-1-yl)-2-phenyl-acetamide], for which the IC50 came to 0.99 µM.

`CCN(CC)C(=O)C(c1ccccc1)N1CCN(c2ccc(-c3nnc(C)o3)cc2F)CC1` (centres unmarked) [Compound 150, N,N-Diethyl-2-{4-[2-fluoro-4-(5-methyl-[1,3,4]oxadiazol-2-yl)-phenyl]-piperazin-1-yl}-2-phenyl-acetamide]: the IC50 is 0.42 µM.

As for `CCN(CC)C(=O)C(c1ccccc1)N1CCN(c2ccc(-c3noc(C(=O)O)n3)cc2F)CC1` (centres unmarked) [Compound 151, 3-{4-[4-(Diethylcarbamoyl-phenyl-methyl)-piperazin-1-yl]-3-fluorophenyl}-[1,2,4]oxadiazole-5-carboxylic acid], the IC50 was above 10 µM.

As for `CCc1nnc(-c2ccc(N3CCN(C(C(=O)N(CC)CC)c4ccccc4)CC3)c(F)c2)o1` (centres unmarked) [Compound 152, N,N-Diethyl-2-{4-[4-(5-ethyl-[1,3,4]oxadiazol-2-yl)-2-fluoro-phenyl]-piperazin-1-yl}-2-phenyl-acetamide], the IC50 is 0.3 µM.

For `CCN(CC)C(=O)C(c1ccccc1)N1CCN(c2ccc(-c3nnc(C(C)C)o3)cc2F)CC1` (centres unmarked) [Compound 154, N,N-Diethyl-2-{4-[2-fluoro-4-(5-isopropyl-[1,3,4]oxadiazol-2-yl)-phenyl]-piperazin-1-yl}-2-phenyl-acetamide], the IC50 amounted to 0.22 µM.

Turning to `CCN(CC)C(=O)C(c1ccccc1)N1CCN(c2ccc(-c3ncon3)cc2F)CC1` (centres unmarked) [Compound 158, N,N-Diethyl-2-[4-(2-fluoro-4-[1,2,4]oxadiazol-3-yl-phenyl)-piperazin-1-yl]-2-phenyl-acetamide], the IC50 is 1.5 µM.

For the compound `CCN(CC)C(=O)C(c1ccccc1)N1CCN(c2ccc(-c3noc(=O)n3C)cc2F)CC1` (centres unmarked) [Compound 176, N,N-Diethyl-2-{4-[2-fluoro-4-(4-methyl-5-oxo-4,5-dihydro-[1,2,4]oxadiazol-3-yl)-phenyl]-piperazin-1-yl}-2-phenyl-acetamide], the IC50 was 1.9 µM.

Regarding `CCN(CC)C(=O)C(c1ccccc1)N1CCN(c2ccc(-c3noc(SC)n3)cc2F)CC1` (centres unmarked) [Compound 177, N,N-Diethyl-2-{4-[2-fluoro-4-(5-methylsulfanyl-[1,2,4]oxadiazol-3-yl)-phenyl]-piperazin-1-yl}-2-phenyl-acetamide], the IC50 came out at 0.51 µM.
